Nine molecules from DBAASP can be followed below.

≈ marks a conversion by molar mass, not a printed value.

Common to all, as to assay: ≥ marks a high value that may be exact or a test limit, other limits are often not marked, values filed in µg/mL are converted to µM
The subject of experiment [1] is Escherichia coli ATCC 25726.
For experiment [2], the system named is Staphylococcus aureus ATCC 25923.
Experiment [3] concerns Candida albicans ATCC 2002.
The test system of experiment [4] is Escherichia coli ATCC 25922.
Experiment [5] has as its system Pseudomonas aeruginosa CMCCB 10104.

Consider `CC[C@H](C)[C@H](NC(=O)[C@@H]1CCCN1C(=O)[C@H](CC(C)C)NC(=O)[C@@H](N)Cc1ccccc1)C(=O)N[C@@H](CC(C)C)C(=O)NCC(=O)N[C@@H](CC(N)=O)C(=O)N[C@@H](CC(C)C)C(=O)N[C@@H](CC(C)C)C(=O)N[C@@H](CO)C(=O)NCC(=O)N[C@@H](CC(C)C)C(=O)N[C@@H](CC(C)C)C(N)=O` [FLPILGNLLSGLL], for which the MIC – broadly, the smallest concentration in the dilution series that meets the test's criterion for growth inhibition – is not below 100 µM in experiment [1] and 50 µM (≈ 68.4 µg/mL) in experiment [2].

For the molecule `CC[C@H](C)[C@H](NC(=O)CN)C(=O)N[C@@H](Cc1ccccc1)C(=O)N[C@@H](CO)C(=O)N[C@@H](CCCCN)C(=O)N[C@H](C(=O)N[C@@H](CO)C(=O)NCC(=O)N[C@@H](CCCCN)C(=O)N[C@@H](C)C(=O)N[C@H](C(=O)N[C@@H](CCCCN)C(=O)N[C@@H](CC(N)=O)C(=O)N[C@@H](CC(C)C)C(=O)N[C@@H](Cc1ccccc1)C(=O)N[C@H](C(=O)N[C@@H](CCCCN)C(=O)NCC(=O)N[C@@H](C)C(=O)N[C@@H](CCCCN)C(=O)N[C@@H](CC(N)=O)C(=O)N[C@H](C(=O)NCC(=O)N[C@@H](CCCCN)C(=O)N[C@@H](CCCN=C(N)N)C(=O)N[C@H](C(=O)NCC(=O)N[C@@H](CCSC)C(=O)N[C@@H](CC(=O)O)C(=O)N[C@H](C(=O)N[C@H](C(=O)N[C@@H](CCCN=C(N)N)C(=O)N[C@H](C(=O)NCC(=O)N[C@@H](CCSC)C(=O)N[C@@H](CC(=O)O)C(=O)N[C@H](C(=O)N[C@H](C(=O)NCC(=O)N[C@H]1CSSC[C@@H](C(=O)O)NC(=O)[C@H](CCC(=O)O)NC(=O)CNC(=O)[C@H](CCCCN)NC(=O)[C@H]([C@@H](C)CC)NC(=O)[C@H](CCCCN)NC1=O)C(C)C)C(C)C)[C@@H](C)O)C(C)C)C(C)C)C(C)C)C(C)C)[C@@H](C)CC)[C@@H](C)CC)[C@@H](C)CC` [GIFSKISGKAIKNLFIKGAKNVGKRVGMDVVRTGMDVVGCKIKGEC], the MIC in experiment [3] came out at 2.27 µM (≈ 11 µg/mL); in experiment [4], 1.13 µM (≈ 5.5 µg/mL); in experiment [5], 2.27 µM (≈ 11 µg/mL); in experiment [2] it was 2.27 µM (≈ 11 µg/mL).

For the molecule `CC[C@H](C)[C@H](NC(=O)CN)C(=O)N[C@@H](CC(C)C)C(=O)NCC(=O)N[C@@H](CC(N)=O)C(=O)N[C@H](C(=O)N[C@H](C(=O)NCC(=O)N[C@@H](CCSC)C(=O)NCC(=O)N[C@@H](CCCCN)C(=O)N[C@@H](CCCCN)C(=O)N[C@H](C(=O)N[C@H](C(=O)N[C@H]1CSSC[C@@H](C(=O)O)NC(=O)[C@H](CC(C)C)NC(=O)CNC(=O)[C@H](CO)NC(=O)[C@H](CC(C)C)NC(=O)CNC1=O)C(C)C)[C@@H](C)CC)C(C)C)[C@@H](C)CC` [GILGNIVGMGKKIVCGLSGLC], the MIC turned out to be 1.53 µM (≈ 3.1 µg/mL) in experiment [3], 3.05 µM (≈ 6.19 µg/mL) in experiment [4], 6.1 µM (≈ 12.4 µg/mL) in experiment [5] and 3.05 µM (≈ 6.19 µg/mL) in experiment [2].

Consider `CC[C@H](C)[C@H](NC(=O)CNC(=O)[C@H](CO)NC(=O)[C@H](CC(C)C)NC(=O)[C@@H](NC(=O)CN)[C@@H](C)CC)C(=O)N[C@@H](CC(C)C)C(=O)NCC(=O)N[C@H](C(=O)NCC(=O)N[C@@H](CCCCN)C(=O)N[C@@H](CCSC)C(=O)N[C@@H](CC(C)C)C(=O)N[C@H](C(=O)N[C@H]1CSSC[C@@H](C(=O)O)NC(=O)[C@H](CC(C)C)NC(=O)CNC(=O)[C@H](CO)NC(=O)[C@H](CC(C)C)NC(=O)CNC1=O)C(C)C)C(C)C` [GILSGILGVGKMLVCGLSGLC], for which the minimal inhibitory concentration (MIC) in experiment [3] is 4.32 µM (≈ 8.59 µg/mL); in experiment [4], 4.32 µM (≈ 8.59 µg/mL); in experiment [5], 8.64 µM (≈ 17.2 µg/mL); in experiment [2], 4.32 µM (≈ 8.59 µg/mL).

As for `CC[C@H](C)[C@H](NC(=O)[C@H](CC(C)C)NC(=O)[C@@H](NC(=O)[C@H](Cc1ccccc1)NC(=O)[C@H](CC(C)C)NC(=O)CN)[C@@H](C)O)C(=O)N[C@@H](CCCCN)C(=O)NCC(=O)N[C@@H](C)C(=O)N[C@@H](Cc1ccc(O)cc1)C(=O)N[C@@H](CCCCN)C(=O)N[C@@H](CC(N)=O)C(=O)N[C@@H](CC(=O)O)C(=O)N[C@@H](C)C(=O)N1CCC[C@H]1C(=O)N[C@H](C(=O)N[C@H](C(=O)N[C@@H](C)C(=O)N[C@@H](CS)C(=O)N[C@@H](CC(N)=O)C(=O)O)C(C)C)[C@@H](C)O` [GLFTLIKGAYKNDAPTVACN], the MIC in experiment [3] was found to be 11.6 µM (≈ 24.3 µg/mL); in experiment [4], 11.6 µM (≈ 24.3 µg/mL); in experiment [5], 23.2 µM (≈ 48.6 µg/mL); in experiment [2], 5.82 µM (≈ 12.2 µg/mL).

For `CC[C@H](C)[C@H](NC(=O)[C@H](CC(C)C)NC(=O)[C@H](CCC(N)=O)NC(=O)[C@@H](NC(=O)[C@H](C)NC(=O)CNC(=O)[C@H](CCCCN)NC(=O)[C@@H](NC(=O)[C@H](CC(C)C)NC(=O)[C@@H](NC(=O)[C@H](Cc1ccccc1)NC(=O)[C@@H](NC(=O)CN)C(C)C)[C@@H](C)O)[C@@H](C)CC)[C@@H](C)O)C(=O)NCC(=O)N[C@@H](CCCCN)C(=O)N[C@H](C(=O)N[C@@H](CC(C)C)C(=O)NCC(=O)N[C@@H](CCCCN)C(=O)N[C@@H](CCC(=O)O)C(=O)N[C@@H](CC(C)C)C(=O)NCC(=O)N[C@@H](CCCCN)C(=O)N[C@H](C(=O)NCC(=O)N[C@@H](CC(C)C)C(=O)N[C@@H](CCC(=O)O)C(=O)N[C@@H](CC(C)C)C(=O)N[C@@H](CCSC)C(=O)N[C@@H](C)C(=O)N[C@H]1CSSC[C@@H](C(=O)O)NC(=O)[C@H](CCC(N)=O)NC(=O)[C@H](CCC(=O)O)NC(=O)[C@H]([C@@H](C)O)NC(=O)[C@H]([C@@H](C)CC)NC(=O)[C@H](CCCCN)NC1=O)[C@@H](C)O)[C@@H](C)O` [GVFTLIKGATQLIGKTLGKELGKTGLELMACKITEQC], the MIC in experiment [3], in experiment [4], in experiment [5] and in experiment [2] was 0.924 µM (≈ 3.6 µg/mL) each time.

As for `CC[C@H](C)[C@H](NC(=O)[C@H](CCC(=O)O)NC(=O)[C@H](CO)NC(=O)[C@@H](NC(=O)[C@H](CC(C)C)NC(=O)[C@H](C)NC(=O)[C@H](CCC(N)=O)NC(=O)CNC(=O)[C@H](Cc1ccccc1)NC(=O)[C@H](CCCCN)NC(=O)[C@H](CCCCN)NC(=O)[C@H](C)NC(=O)[C@H](CO)NC(=O)[C@H](Cc1cnc[nH]1)NC(=O)[C@H](CC(C)C)NC(=O)[C@H](Cc1ccccc1)NC(=O)[C@H](CCCCN)NC(=O)CNC(=O)[C@@H](NC(=O)CN)C(C)C)C(C)C)C(=O)N[C@@H](CCSC)C(=O)N[C@@H](CCCCN)C(=O)N[C@@H](CO)C(=O)O` [GVGKFLHSAKKFGQALVSEIMKS], the figures for the MIC in experiment [1] and in experiment [2] were not below 50 µM and more than 100 µM, respectively.

Turning to `CC[C@H](C)[C@H](N)C(=O)N[C@@H](CC(N)=O)C(=O)N1CCC[C@H]1C(=O)N[C@@H](Cc1ccccc1)C(=O)N[C@H](C(=O)N[C@@H](C)C(=O)NCC(=O)N[C@H](C(=O)N[C@@H](C)C(=O)N[C@@H](C)C(=O)N[C@@H](CCC(=O)O)C(=O)N[C@@H](CCSC)C(=O)N[C@@H](CCSC)C(=O)N[C@@H](CCC(N)=O)C(=O)N[C@@H](Cc1cnc[nH]1)C(=O)N[C@H](C(=O)N[C@@H](Cc1ccc(O)cc1)C(=O)N[C@H]1CSSC[C@@H](C(=O)O)NC(=O)[C@H](CCCCN)NC(=O)[C@H](CCCCN)NC(=O)[C@H](CO)NC(=O)[C@H](C)NC(=O)[C@H](C)NC1=O)C(C)C)C(C)C)C(C)C` [INPFVAGVAAEMMQHVYCAASKKC], the minimal inhibitory concentration (MIC) in experiment [3], in experiment [4], in experiment [5] and in experiment [2] was 3.35 µM (≈ 8.59 µg/mL) in each case.

Regarding `CC(C)[C@H](N)C(=O)N[C@H](C(=O)N[C@@H](CCCCN)C(=O)N[C@@H](CS)C(=O)N[C@@H](CO)C(=O)N[C@@H](Cc1ccc(O)cc1)C(=O)N[C@@H](CCCN=C(N)N)C(=O)N[C@@H](CCC(N)=O)C(=O)NCC(=O)N[C@@H](CO)C(=O)N1CCC[C@H]1C(=O)N[C@@H](CC(=O)O)C(=O)N[C@@H](CO)C(=O)N[C@@H](CCCN=C(N)N)C(=O)O)C(C)C` [VVKCSYRQGSPDSR], the MIC in experiment [3] is not below 126 µM; in experiment [4], more than 126 µM; in experiment [5] it was not below 126 µM; in experiment [2] it was more than 126 µM.
